Reference: article PMC13070491, “Single-nucleus transcriptomics, pharmacokinetics, and pharmacodynamics of CDK4/6 and mTOR inhibition in a Phase 0/1 trial of recurrent high-grade glioma” (Neuro-Oncology, 2025)

What was measured:
[1] = tested on: CDK4/6; conditions: threshold basis for Phase 1 expansion; no reference given; read-out: biochemical IC50; cited from earlier work
[2] = tested on: malignant cells of recurrent IDH-wildtype glioblastoma; assay: Single nucleus RNA sequencing of tumor samples, malignant cell state proportions vs standard-of-care cohorts; type: in vivo, human
From the text: Count matrices were loaded into R using Seurat's (version 4.3.0) Read10X function. Cells were filtered based on the following quality control criteria: number of genes detected greater than 500 and fewer than 10 000; maximum percentage of mitochondrial genes of 5%. DoubletFinder was used to identify potential nuclei doublets, which were filtered out.[17] The expression data were processed by normalization, scaling, PCA based on genes differentially expressed across brain cell types, Harmony batch correction for sample preparation batch,[18] Uniform Manifold Approximation and Projection (UMAP), and clustering using the Louvain algorithm, and resolution set to 0.6. Cell type annotation was based on gene expression markers for each cluster and confirmed via mapping to a normal reference brain atlas (Azimuth). […] (https://github.com/broadinstitute/[…]) was used to confirm malignant status based on the presence of copy number alterations. […] HMM-predicted copy number alteration levels were extracted to define malignant and nonmalignant cells based on the following approach. […] Putative malignant cells not meeting this threshold were labelled as unresolved and excluded. Cells assigned to a nonmalignant gene expression cluster with 25% of chromosome 7 inferred gain and/or 25% of chromosome 10 inferred loss were labelled as unresolved and excluded. Samples with fewer than 25 malignant cells were excluded from malignant state analysis. […] Cell cycle status was assigned independent of […] cell state. Cells were classified as AC-like, etc., along with its cell cycle status-cycling or not.

[3] = tested on: pS6 ribosomal protein; assay: IHC of tumor tissue, pS6 ribosomal protein positive cells; type: in vivo, human; conditions: 5 days ribociclib + everolimus; paired t-test P > .05
Protocol: Everolimus pharmacodynamic biomarkers were assessed using IHC with the following antibodies: anti-p4EBP1 (Cell Signaling Technology; #2855, 1:500); anti-pS6 ribosomal protein (Cell Signaling -Technology; #4858, 1:100). IHC staining was performed using the BOND RX automated system (Leica Biosystems) as previously described.[8] Stained slides were imaged on a Leica Versa microscope and analyzed with Aperio Image software. Percentage of stain-positive cells was quantified from at least 6 randomly selected regions of interest within the tumor as assessed by a board-certified neuropathologist.

CN(C)C(=O)c1cc2cnc(Nc3ccc(N4CCNCC4)cn3)nc2n1C1CCCC1 [Ribociclib, ribociclib]
IC50 [1]: 0.04 µM
proportion of malignant cells actively cycling vs standard treatment cohorts (snRNAseq) ([2]; n = 17 ribociclib-exposed vs CARE n = 57 and Wang et al. n = 31, P = 3.2E-03 and P = 2.0E-04): lower proportion
neural progenitor-like (NPC-like) state vs standard treatment cohorts (snRNAseq) ([2]; n = 17 ribociclib-exposed vs CARE n = 57 and Wang et al. n = 31, P = 5.8E-05, P = 1.8E-03): decrease
fraction of NPC-like malignant cells, Phase 2 (104 days) vs Phase 0 (5-day) sample of one patient ([2]; ribociclib monotherapy, single case, snRNAseq): reduced fraction
mTOR pathway activity as quantified by pS6, surgical specimen vs archival tissue [3]: elevated but not significantly different
